In patent US11220523B2, “Carbohydrate ligands that bind to IgM antibodies against myelin-associated glycoprotein” (UNIVERSITÄT BASEL, priority 2014, dated 2022):

Biological target: anti-MAG IgM antibodies
Assay: Competitive binding assay (modified anti-MAG ELISA): compounds compete with immobilized MAG for anti-MAG IgM antibodies of patient sera
Parameters: species or system human
Protocol: FIG. 1. Schematic representation of a competitive binding assay • (a) Incubation of MAG-coated plates with anti-MAG IgM (patient sera) and polymer 25. (b) Wash step. (c) Incubation with anti-human IgM antibody coupled to horseradish peroxidase. (d) Wash step. (e) Addition of tetramethylbenzidin (TMB) substrate. (f) Addition of acidic stop solution and measurement of the optical density.
The synthesized carbohydrate monomers (1 and 2) and the polymer 25 were tested in an established ELISA assay (Bühlmann Laboratories, Schonenbuch, Switzerland) applied for the diagnosis of anti-MAG neuropathy and for therapy control in clinic. The assay is used to determine serum concentration of anti-MAG IgM autoantibodies. The assay was modified to a competitive binding assay. The synthesized compounds and serum samples containing anti-MAG IgM antibodies are given into 96 well plates, coated with purified MAG from human brain. Immobilized MAG and the synthesized compounds compete for binding to the anti-MAG IgM antibodies. After a washing step MAG-bound IgM antibodies are detected with a horseradish peroxidase labeled antibody, followed by a colorimetric reaction. Successful competition of the compounds with MAG leads to a decrease in measured OD450 nm (optical density), because they block the binding sites of IgM antibodies, preventing them from binding to MAG. The principle of the assay is depicted in FIG. 1. For the evaluation of the compounds, four sera from different patients ([…]) with reported high anti-MAG IgM antibody titers were chosen. IgM antibody concentrations were determined for each serum in preliminary experiments. Serum dilutions with measured OD450 nm values around 1.0 were chosen for the assay, to be able to compare the measured IC50 values (half maximal inhibitory concentration) which are antibody concentration dependent. Serum dilutions: DP 1:2′500, KH 1:3,000, SJ 1:7,500, MK 1:23,000.
IC50 values of compound 1 were determined for all sera. Those of compound 2 were determined for serum MK with the highest antibody affinity for 1 and for serum SJ with the lowest antibody affinity for 1. The assay was repeated four times. From the received binding curves for each serum, the three best fitted were chosen and normalized for IC50 calculation. For curve generation of compound 2 an artificially high concentration point at 500 mM with 0% antibody binding was added because even at the highest concentration of 2 (50 mM) the inhibition of antibody binding was not 100%. The IC50 values for compound 2 are therefore to be considered as approximated values, although they changed only marginally upon addition of the high concentration point. Under the same assay conditions the carbohydrate polymer was tested with the sera KH, MK and SJ. The measurements were repeated at least three times. The three best fitted curves for each serum were chosen for IC50 calculation.
Sera of four patients (three men and one […]) were investigated. They all were tested positive for a monoclonal IgM gammopathy and were diagnosed with anti-MAG neuropathy at the University Hospital of Basel (Basel, Switzerland). Serum anti-MAG antibody titers were determined by an ELISA assay (Bühlmann Laboratories, Schonenbuch, Switzerland). Sera from two patients with a monoclonal IgM gammopathy and negative anti-MAG activity served as control. Use of sera was approved by the ethics committee of the University Hospital of Basel.
An anti-MAG ELISA kit (Bühlmann Laboratories, Schonenbuch, Switzerland) was used for the biological evaluation of compounds 1, 2 and 25. The 96 well plates coated with purified MAG from human brain were washed four times with washing buffer (300 μl/well) before adding the carbohydrate ligands in seven different concentrations (0.05-50 mM for the monomers 1 and 2 and 0.05-5,000 nM for the polymer 25), 25 μl/well. The patient sera containing anti-MAG IgM antibodies were added in the appropriate dilutions, 25 μl/well. […]

Row | IC50 (patient serum DP (dilution 1:2′500), MAG-coated plates) [µM] | IC50 (patient serum KH (dilution 1:3,000), MAG-coated plates) [µM] | IC50 (patient serum MK (dilution 1:23,000), MAG-coated plates) [µM] | IC50 (patient serum SJ (dilution 1:7,500), MAG-coated plates) [µM] | inhibition of antibody binding (highest concentration, 50 mM) [%] | weaker binding to the unsulfated disaccharide (versus sulfated disaccharide 1) (patient serum MK) | IC50 (patient serum MK, approximated value, artificial point at 500 mM with 0% antibody binding added for curve fit) [µM] | lower binding affinity to the unsulfated disaccharide (versus sulfated disaccharide 1) (patient serum SJ) [fold] | IC50 (patient serum SJ, approximated value, artificial point at 500 mM with 0% antibody binding added for curve fit) [µM] | SMILES
1 | 536 ± 23.5 | 614 ± 20.1 | 124 ± 9.5 | 793 ± 24 | – | – | – | – | – | COc1ccc(OC2OC(CO)C(O)C(OC3OC(C(=O)O)C(O)C(OS(=O)(=O)O)C3O)C2O)cc1 [Compound 1, 4-Methoxyphenyl (Disodium-3-O-Sulfo-β-D-Glucopyranuronate)-(1→3)-β-D-Galacto-Pyranoside]
2 | – | – | – | – | < 100 | approximately 230 fold | 29000 ± 500 | 12.6 | 10000 ± 1000 | COc1ccc(OC2OC(CO)C(O)C(OC3OC(C(=O)O)C(O)C(O)C3O)C2O)cc1 [Compound 2, 4-Methoxyphenyl (Sodium β-D-Glucopyranuronate)-(1→3)-β-D-Galactopyranoside]
